Measured values reported in patent US20110104186A1, “Small molecule immunopotentiators and assays for their detection” (priority 2004, published 2011).

System: TNF-α production
Assay: In vitro inhibition of TNF-α production by 1H-imidazoquinolines
Type: cell-based

With “3-({4-[(2E)-3-phenylprop-2-enyl]piperazin-1-yl}carbonyl)-7-oxabicyclo[2.2.1]heptane-2-carboxylic acid [Example 15]” the IC50 was 3.68 µM.
“4-({2-[(4-chlorophenyl)amino]-1-methyl-1H-benzimidazol-5-yl}oxy)-N-1,3-thiazol-2-ylpyridine-2-carboxamide [Example 9]” showed an IC50 of 0.205 µM.
“1-[2-(methyloxy)phenyl]-4-{[3,4,5-tris(methyloxy)phenyl]carbonyl} piperazine [Example 16]” gave an IC50 of 8.02 µM.
Work on “3-pentyl-7-[(4-phenylpiperazin-1-yl)carbonyl]-2-thioxo-2,3-dihydroquinazolin-4(1H)-one [Example 18]” yielded an IC50 greater than 10 µM.
“3-[(4-pyridin-2-ylpiperazin-1-yl)carbonyl]-7-oxabicyclo[2.2.1]heptane-2-carboxylic acid [Example 17]” was tested, and the IC50 was 2.67 µM.
Work on `CCOc1ccccc1C(=O)N1CCN(c2cccc(Cl)c2)CC1` [Example 14, 1-(3-chlorophenyl)-4-{[2-(ethyloxy)phenyl]carbonyl}-piperazine] yielded an IC50 of 1.38 µM.
“1-[(3-fluorophenyl)carbonyl]-4-{[4-(trifluoromethyl)phenyl] methyl}piperazine [Example 12]” gave an IC50 of 3.66 µM.
`CNC(=O)c1cc(Oc2ccc3[nH]c(Nc4ccccc4C(C)C)nc3c2)ccn1` [Example 2, N-methyl-4-[(2-{[2-(1-methylethyl)phenyl]amino}-1H-benzimidazol-5-yl)oxy]pyridine-2-carboxamide] was tested, and the IC50 was 4.81 µM.
With `COc1cccc(C(=O)N2CCc3cc(OC)c(OC)cc3C2C)c1` (stereo not drawn) [Example 22] the IC50 was greater than 10 µM.
